# From patent US20210244028A1, “TREATMENT FOR REMOVING ECTOPARASITES FROM FISH” (priority 2018, published 2021)
# Like-named read-outs stand apart in the source and are kept apart here.
# Experiments:
# [1] = test system: Lepeophtheirus salmonis; assay: Immersion treatment of sea lice-challenged salmon in tanks, 1 or 6 weeks post challenge (Example 1); type: in vivo
# Description: Eight flow-through treatment tanks each containing 15 fish were set up. The fish were Salmon (Salmo salar) having an average weight of approximately 270 g and of mixed sex. Egg strings removed from ovigerous female Lepeophtheirus salmonis were collected and cultured until infective copepodids were produced. Eight bottles containing approximately 330-350 copepodids were each randomly allocated to a treatment tank (to provide an average of 22 lice per fish).
# In preparation for the challenge, water flows in the tanks were stopped and light levels reduced. The lice were then added to each tank and the tanks maintained in total darkness for 6 hours after which light levels were raised and the water flow resumed.
# The fish were challenged with sea lice for either one week or for six weeks.
# One week after the sea lice challenge, fish in three of the tanks were treated with either 10 ppm w/v, 30 ppm w/v or 50 ppm w/v imidacloprid. One of the tanks was treated with 0.03% DMSO and another tank sham treated with sea water as controls.
# For each treatment tank, the appropriate amount of imidacloprid (see Table 1) was dissolved in 100 ml of DMSO and mixed with approximately 900 ml of sea water from the experimental tank to obtain a treatment solution. The water flow on the experimental tanks was disabled and the treatment solution was then added.
# Fish were exposed for 60 minutes in static water with full aeration and observed during the exposure period. At the end of the exposure period the water was rapidly drained to approximately ⅓ volume, before the flows were resumed in the tanks.
# Six weeks after the fish were challenged with sea lice, the fish in the three remaining treatment tanks were treated with either 10 ppm w/v, 30 ppm w/v or 50 ppm w/v imidacloprid. The treatment was carried out in the same way as for the treatment tanks one week post challenge (see 1.2.1).
# Eight weeks after the fish were challenged with sea lice, the study was terminated. Fish were over anaesthetised in MS222 (tricaine methanesulfonate) and pithed using an Iki Jime tool.
# The length and weight of each fish and external symptoms were recorded. All lice were removed from each fish and note made of sex and stage of development. The lice were stored in ethanol and sex and stage confirmed using stereo microscope.
# The data is expressed as prevalence and abundance. Prevalence is defined as the number of hosts infected with one of more individuals of a parasite species divided by the number of hosts examined (including infected and uninfected hosts) and expressed as a percentage.
# [2] = test system: L. salmonis; assay: Field well boat treatment, pre- vs post-treatment sea lice counts (Example 4); type: in vivo; details: 20 ppm, 60 minutes, 30 fish per pen, within 24 hours after treatment, pens A-D
# Method: The effectiveness of imidacloprid against pre-adult and adult stages of L. salmonis and Caligus sp. infections on farmed Atlantic salmon was investigated by performing pre- and post-treatment sea lice counts on salmon undergoing a treatment with imidacloprid. This trial was conducted at a commercial salmon farm in Norway. The salmon were pumped onto a well boat and were exposed to 20 ppm imidacloprid for 60 minutes. The average weight of the salmon was 3.5 kg and the average number of salmon per pen was 180,000. 30 fish per pen were assessed for L. salmonis and Caligus sp., and the number of each L. salmonis life stage found was recorded. This was performed within 24 hours prior to treatment, and within 24 hours after treatment.
# These assessments were made on four pens of salmon in total. Prior to treatment, fish were crowded within the pen to enable them to be pumped into the well boat, which is where the pre-treatment sea lice assessments were conducted. The post-treatment sea lice assessments were made by removing fish from the outflow pipe on the well boat.
# At all time points, 3 fish were removed and placed into an anaesthetic bath. This was repeated 10 times until 30 fish had been assessed.
# The numbers of sea lice observed per fish for this trial for each of the four tested pens according to sea lice life cycle state, pre- or post-administration of active are presented in Table 5.
# [3] = test system: Lepeophtheirus salmonis; details: 20 ppm (nitenpyram 19 ppm); for percentage of sea lice that dropped from treated fish at the end of the treatment period: culled fish
# Method: The fish were acclimatised until normal feeding behaviour resumed, up to a maximum of 10 days, prior to challenge. The fish were housed in 750 litre tanks at a stocking density of no greater than 35 kg/m3. Tanks were provided with a continuous supply of seawater at a flow rate greater than 5 L/min at a temperature of 4.8-10.4° C. The photoperiod was set at 12 hours light: 12 hours dark.
# The fish were challenged in a static bath with copepodid instar of Lepeophtheirus salmonis with the appearance of egg strings freshly removed from adult female lice at a target titre of 1,250-1,700 copepodids per tank
# Egg strings were harvested from gravid sea lice and incubated in upwelling chambers until nauplii eclosion. Nauplii were allowed to moult through to the copepodid instar (5 days at approx. 10° C.) and then the tank water was filtered through a 100 μm mesh before re-suspending the copepodids in 225 mL of sea water. A 25 mL sample was removed which was then split into 1-2 mL samples in a 24-well plate and the nauplii/copepodids were counted under a stereo microscope. When abundance was sufficient and a minimum of 80% were copepodids the fish were challenged for 8 hours under static flow in the dark.
# Fish were randomly selected from tanks, lightly sedated in a 90 ppm MS222 solution sufficient only to induce loss of equilibrium before being sacrificed by a non-recoverable blow to the head. Between 4 and 33 fish were required per treatment.
# Culled fish were then suspended in treatment tanks. Fish were suspended in the tank horizontally from cable ties (one through the opercular cavity, one around the peduncle) and wire attached to a wooden rod). One 20 L tank of test item at 20 ppm was used per day. Lice on culled fish were exposed for either 5, 10, 15, 30 or 60 minutes (negative control was only exposed for 60 minutes as this would cover the longest exposure period to be tested). The order within treatment was randomised.
# Lice were monitored continuously for the duration of the exposure and behavioural observations noted, including detachment of lice from fish. At the end of exposure lice were either removed from the tank or fish, placed into small vented plastic screw-top containers (125 mL, LDPE, 25 mm hole drilled into lid and secured with 200 μm mesh), and transferred to a clean tank supplied with filtered sea water and held there for 24 h. Lice which had detached from fish were kept separate from those that had not detached.
# On the day of exposure, 200 mg of the test ectoparasite treatments was added to 1 L of sea water. Only 192 mg of nitenpyram was supplied. The solution was mechanically stirred for 30 minutes, using a stirring plate and magnetic flea (VWR), at a speed sufficient to generate a strong vortex to ensure a homogenous solution. This was then transferred into an approx. 25 L clear plastic tank containing 9 L of sea water. The solution was then mixed for a further 10 minutes using a small pump (Fluval Sea CP1), which was then removed from the tank prior to addition of fish.
# Each treatment requiring 1 to 4 fish per individual treatment per replicate and 2 to 13 fish per group per replicate. Treatments with negative control (sea water), dinotefuran, clothianidin and thiamethoxam were replicated twice, and for imidacloprid three times. There was only one replicate per treatment for nitenpyram. The mean number of lice used per individual treatment was 5.5 to 10, with the mean per group being 6.2-7.2 lice.
# [4] = exposure 15 min, * only one louse knocked down
# [5] = exposure 30 min, * only one louse knocked down
# [6] = exposure 60 min, * only one louse knocked down
structure (smiles),measurement,setting,value
O=[N+]([O-])NC1=NCCN1Cc1ccc(Cl)nc1 [imidacloprid],Overall lice abundances compared with the DMSO control,"[1]; 10, 30 or 50 ppm w/v, treated one week post challenge",No significant differences
same,Time after addition at which no fish were visibly infected with lice,"[1]; 30 ppm w/v, treated 6 weeks post challenge",59 min
same,Lesions associated with feeding and attachment of lice,"[1]; 30 ppm w/v, two days post-treatment",almost completely resolved
same,Time after addition at which no lice were visible on the fish,"[1]; 50 ppm w/v, treated 6 weeks post challenge",81 min
same,Lesions associated with feeding and attachment of lice,"[1]; 50 ppm w/v, two days post treatment",almost completely resolved
same,"Post-treatment sea lice count, Adult Female",[2],0.0 sea lice per fish
same,"Post-treatment sea lice count, Adult Male",[2],0.0 sea lice per fish
same,"Post-treatment sea lice count, Gravid Female",[2],0.0 sea lice per fish
same,"Post-treatment sea lice count, Pre-Adult Female",[2],0.0 sea lice per fish
same,"Post-treatment sea lice count, Pre-Adult Male",[2],0.0 sea lice per fish
same,"Post-treatment sea lice count, Total",[2],0.0 sea lice per fish
same,percentage of sea lice that dropped from treated fish at the end of the treatment period,[3]; exposure 5 min,0%
same,knockdown times (mean±SEM),[3]; exposure 10 min,481 ± 60 s
same,percentage of lice for which their knockdown time equalled that of the exposure time,[3]; exposure 10 min,33.3%
same,percentage of sea lice that dropped from treated fish at the end of the treatment period,[3]; exposure 10 min,20.0%
same,percentage of sea lice that dropped from treated fish at the end of the treatment period,[3]; exposure 15 min,42.9%
same,knockdown times (mean±SEM),[3]; [4],586 ± 114 s
same,percentage of lice for which their knockdown time equalled that of the exposure time,[3]; [4],28.6%
same,percentage of sea lice that dropped from treated fish at the end of the treatment period,[3]; exposure 30 min,41.2%
same,knockdown times (mean±SEM),[3]; [5],1029 ± 165 s
same,percentage of lice for which their knockdown time equalled that of the exposure time,[3]; [5],11.1%
same,percentage of sea lice that dropped from treated fish at the end of the treatment period,[3]; exposure 60 min,92.9%
same,knockdown times (mean±SEM),[3]; [6],1209 ± 235 s
same,percentage of lice for which their knockdown time equalled that of the exposure time,[3]; [6],7.7%
